According to patent publication US20250249056A1, “CANCER THERAPIES COMPRISING A NUCLEAR EXPORT INHIBITOR AND AN ONCOLYTIC VIRUS” (priority 2022, published 2025):

Test system: Colo205 cells
Assay type: cell-based, human

SMILES: O=C(/C=C\n1cnc(-c2cc(C(F)(F)F)cc(C(F)(F)F)c2)n1)NNc1cnccn1 [selinexor]
- Differential protein expression, SCAF1: 100
- Differential protein expression, A2ML1 (A8K2U0, selinexor-treated cytoplasm vs control cytoplasm): 3.444
- Differential protein expression, PHF20L1 (A8MW92, selinexor-treated cytoplasm vs control cytoplasm): 0.01
- Differential protein expression, KPNA7 (A9QM74, selinexor-treated cytoplasm vs control cytoplasm): 0.149
- Differential protein expression, accession B2CWB5 (B2CWB5 (gene symbol not given), selinexor-treated cytoplasm vs control cytoplasm): 0.01
- Differential protein expression, m033R (B2CWE0, selinexor-treated cytoplasm vs control cytoplasm): 0.01
- Differential protein expression, m047R (B2CWF4, selinexor-treated cytoplasm vs control cytoplasm): 0.01
- Differential protein expression, m060R (B2CWG7, selinexor-treated cytoplasm vs control cytoplasm): 0.01
- Differential protein expression, accession B2CWJ3 (B2CWJ3 (gene symbol not given), selinexor-treated cytoplasm vs control cytoplasm): 0.01
- Differential protein expression, accession B2CWL4 (B2CWL4 (gene symbol not given), selinexor-treated cytoplasm vs control cytoplasm): 100
- Differential protein expression, m149R (B2CWQ5, selinexor-treated cytoplasm vs control cytoplasm): 100
- Differential protein expression, HNRNPCL2 (B2RXH8, selinexor-treated cytoplasm vs control cytoplasm): 2.92
- Differential protein expression, HNRNPCL3 (B7ZW38, selinexor-treated cytoplasm vs control cytoplasm): 2.963
- Differential protein expression, m107L (E2CZJ6, selinexor-treated cytoplasm vs control cytoplasm): 100
- Differential protein expression, m126R (E2CZL5, selinexor-treated cytoplasm vs control cytoplasm): 0.193
- Differential protein expression, m001R (E2CZP2, selinexor-treated cytoplasm vs control cytoplasm): 3.839
- Differential protein expression, m009L (E2CZQ3, selinexor-treated cytoplasm vs control cytoplasm): 0.01
- Differential protein expression, m055R (E2CZV0, selinexor-treated cytoplasm vs control cytoplasm): 2.342
- Differential protein expression, m072L (E2CZW7, selinexor-treated cytoplasm vs control cytoplasm): 3.124
- Differential protein expression, m086L (E2CZY1, selinexor-treated cytoplasm vs control cytoplasm): 0.01
- Differential protein expression, AGRN (O00468, selinexor-treated cytoplasm vs control cytoplasm): 0.494
- Differential protein expression, SDCBP (O00560, selinexor-treated cytoplasm vs control cytoplasm): 2.743
- Differential protein expression, MPHOSPH10 (O00566, selinexor-treated cytoplasm vs control cytoplasm): 2.761
- Differential protein expression, UBE2C (O00762, selinexor-treated cytoplasm vs control cytoplasm): 0.459
- Differential protein expression, SCD (O00767, selinexor-treated cytoplasm vs control cytoplasm): 0.297
- Differential protein expression, M-T1 (O10625, selinexor-treated cytoplasm vs control cytoplasm): 3.839
- Differential protein expression, CLDN4 (O14493, selinexor-treated cytoplasm vs control cytoplasm): 10.645
- Differential protein expression, UTY (O14607, selinexor-treated cytoplasm vs control cytoplasm): 0.01
- Differential protein expression, MEIS2 (O14770, selinexor-treated cytoplasm vs control cytoplasm): 0.01
- Differential protein expression, BACH1 (O14867, selinexor-treated cytoplasm vs control cytoplasm): 100
- Differential protein expression, IRF6 (O14896, selinexor-treated cytoplasm vs control cytoplasm): 2.466
- Differential protein expression, MYL12B (O14950, selinexor-treated cytoplasm vs control cytoplasm): 2.249
- Differential protein expression, XPO1 (O14980, selinexor-treated cytoplasm vs control cytoplasm): 0.335
- Differential protein expression, MAPK13 (O15264, selinexor-treated cytoplasm vs control cytoplasm): 2.006
- Differential protein expression, DDX3Y (O15523, selinexor-treated cytoplasm vs control cytoplasm): 100
- Differential protein expression, MAFG (O15525, selinexor-treated cytoplasm vs control cytoplasm): 0.453
- Differential protein expression, CLDN3 (O15551, selinexor-treated cytoplasm vs control cytoplasm): 2.357
- Differential protein expression, SPINT1 (O43278, selinexor-treated cytoplasm vs control cytoplasm): 4.255
- Differential protein expression, KDELR3 (O43731, selinexor-treated cytoplasm vs control cytoplasm): 0.379
- Differential protein expression, ZBTB14 (O43829, selinexor-treated cytoplasm vs control cytoplasm): 0.01
- Differential protein expression, HNRNPCL1 (O60812, selinexor-treated cytoplasm vs control cytoplasm): 2.92
- Differential protein expression, NOS1AP (O75052, selinexor-treated cytoplasm vs control cytoplasm): 0.01
- Differential protein expression, SIN3B (O75182, selinexor-treated cytoplasm vs control cytoplasm): 0.01
- Differential protein expression, ZNF217 (O75362, selinexor-treated cytoplasm vs control cytoplasm): 2.042
- Differential protein expression, TAF5L (O75529, selinexor-treated cytoplasm vs control cytoplasm): 100
- Differential protein expression, BANF1 (O75531, selinexor-treated cytoplasm vs control cytoplasm): 2.438
- Differential protein expression, PIAS2 (O75928, selinexor-treated cytoplasm vs control cytoplasm): 100
- Differential protein expression, ZFAND5 (O76080, selinexor-treated cytoplasm vs control cytoplasm): 0.48
- Differential protein expression, SUPT7L (O94864, selinexor-treated cytoplasm vs control cytoplasm): 0.01
- Differential protein expression, HEXIM1 (O94992, selinexor-treated cytoplasm vs control cytoplasm): 3.29
- Differential protein expression, SVIL (O95425, selinexor-treated cytoplasm vs control cytoplasm): 0.01
- Differential protein expression, NUDT3 (O95989, selinexor-treated cytoplasm vs control cytoplasm): 3.124
- Differential protein expression, DHFR (P00374, selinexor-treated cytoplasm vs control cytoplasm): 0.419
- Differential protein expression, OAS1 (P00973, selinexor-treated cytoplasm vs control cytoplasm): 2.17
- Differential protein expression, TIMP1 (P01033, selinexor-treated cytoplasm vs control cytoplasm): 2.021
- Differential protein expression, CSTA (P01040, selinexor-treated cytoplasm vs control cytoplasm): 3.956
- Differential protein expression, FOS (P01100, selinexor-treated cytoplasm vs control cytoplasm): 0.01
- Differential protein expression, KRT14 (P02533, selinexor-treated cytoplasm vs control cytoplasm): 3.261
- Differential protein expression, KRT6A (P02538, selinexor-treated cytoplasm vs control cytoplasm): 3.082
- Differential protein expression, APOD (P05090, selinexor-treated cytoplasm vs control cytoplasm): 7.079
- Differential protein expression, S100A8 (P05109, selinexor-treated cytoplasm vs control cytoplasm): 3.524
- Differential protein expression, CENPB (P07199, selinexor-treated cytoplasm vs control cytoplasm): 0.01
- Differential protein expression, PRSS2 (P07478, selinexor-treated cytoplasm vs control cytoplasm): 0.479
- Differential protein expression, HNRNPC (P07910, selinexor-treated cytoplasm vs control cytoplasm): 2.948
- Differential protein expression, ASNS (P08243, selinexor-treated cytoplasm vs control cytoplasm): 0.353
- Differential protein expression, NFIC (P08651, selinexor-treated cytoplasm vs control cytoplasm): 0.01
- Differential protein expression, KRT16 (P08779, selinexor-treated cytoplasm vs control cytoplasm): 4.248
- Differential protein expression, TOP2A (P11388, selinexor-treated cytoplasm vs control cytoplasm): 0.458
- Differential protein expression, CDK4 (P11802, selinexor-treated cytoplasm vs control cytoplasm): 0.445
- Differential protein expression, NEFH (P12036, selinexor-treated cytoplasm vs control cytoplasm): 2.248
- Differential protein expression, CDH1 (P12830, selinexor-treated cytoplasm vs control cytoplasm): 4.064
- Differential protein expression, KRT10 (P13645, selinexor-treated cytoplasm vs control cytoplasm): 2.123
- Differential protein expression, KRT5 (P13647, selinexor-treated cytoplasm vs control cytoplasm): 2.042
- Differential protein expression, CD59 (P13987, selinexor-treated cytoplasm vs control cytoplasm): 2.269
- Differential protein expression, PLA2G2A (P14555, selinexor-treated cytoplasm vs control cytoplasm): 2.128
- Differential protein expression, CCNB1 (P14635, selinexor-treated cytoplasm vs control cytoplasm): 0.377
- Differential protein expression, MYL6B (P14649, selinexor-treated cytoplasm vs control cytoplasm): 2.392
- Differential protein expression, HNRNPL (P14866, selinexor-treated cytoplasm vs control cytoplasm): 2.044
- Differential protein expression, GLUL (P15104, selinexor-treated cytoplasm vs control cytoplasm): 2.48
- Differential protein expression, ATF2 (P15336, selinexor-treated cytoplasm vs control cytoplasm): 0.01
- Differential protein expression, FOSL2 (P15408, selinexor-treated cytoplasm vs control cytoplasm): 100
- Differential protein expression, H1-3 (P16402, selinexor-treated cytoplasm vs control cytoplasm): 14.354
- Differential protein expression, ZKSCAN1 (P17029, selinexor-treated cytoplasm vs control cytoplasm): 100
- Differential protein expression, SDC1 (P18827, selinexor-treated cytoplasm vs control cytoplasm): 2.678
- Differential protein expression, ATF1 (P18846, selinexor-treated cytoplasm vs control cytoplasm): 100
- Differential protein expression, MYL12A (P19105, selinexor-treated cytoplasm vs control cytoplasm): 2.269
- Differential protein expression, IMPDH1 (P20839, selinexor-treated cytoplasm vs control cytoplasm): 0.485
- Differential protein expression, TGM1 (P22735, selinexor-treated cytoplasm vs control cytoplasm): 2.137
- Differential protein expression, MYL9 (P24844, selinexor-treated cytoplasm vs control cytoplasm): 2.253
- Differential protein expression, DNMT1 (P26358, selinexor-treated cytoplasm vs control cytoplasm): 0.424
- Differential protein expression, RBL1 (P28749, selinexor-treated cytoplasm vs control cytoplasm): 0.395
- Differential protein expression, GRN (P28799, selinexor-treated cytoplasm vs control cytoplasm): 2.493
- Differential protein expression, KDM5A (P29375, selinexor-treated cytoplasm vs control cytoplasm): 0.01
- Differential protein expression, SERPINB3 (P29508, selinexor-treated cytoplasm vs control cytoplasm): 34.048
- Differential protein expression, SLC7A1 (P30825, selinexor-treated cytoplasm vs control cytoplasm): 0.272
- Differential protein expression, S100A7 (P31151, selinexor-treated cytoplasm vs control cytoplasm): 2.547
- Differential protein expression, RRM2 (P31350, selinexor-treated cytoplasm vs control cytoplasm): 0.284
- Differential protein expression, CASP14 (P31944, selinexor-treated cytoplasm vs control cytoplasm): 2.655
- Differential protein expression, CDA (P32320, selinexor-treated cytoplasm vs control cytoplasm): 2.571
- Differential protein expression, GBP1 (P32455, selinexor-treated cytoplasm vs control cytoplasm): 0.01
- Differential protein expression, KRT9 (P35527, selinexor-treated cytoplasm vs control cytoplasm): 0.486
- Differential protein expression, MYH9 (P35579, selinexor-treated cytoplasm vs control cytoplasm): 2.051
- Differential protein expression, MYH10 (P35580, selinexor-treated cytoplasm vs control cytoplasm): 2.213
- Differential protein expression, HSD17B2 (P37059, selinexor-treated cytoplasm vs control cytoplasm): 2.045
- Differential protein expression, FDFT1 (P37268, selinexor-treated cytoplasm vs control cytoplasm): 0.453
- Differential protein expression, PBX3 (P40426, selinexor-treated cytoplasm vs control cytoplasm): 0.01
- Differential protein expression, SLC1A4 (P43007, selinexor-treated cytoplasm vs control cytoplasm): 0.439
- Differential protein expression, MATR3 (P43243, selinexor-treated cytoplasm vs control cytoplasm): 5.731
- Differential protein expression, RFX3 (P48380, selinexor-treated cytoplasm vs control cytoplasm): 0.152
- Differential protein expression, SERPINB4 (P48594, selinexor-treated cytoplasm vs control cytoplasm): 5.894
- Differential protein expression, HNRNPA3 (P51991, selinexor-treated cytoplasm vs control cytoplasm): 2.069
- Differential protein expression, ZNF131 (P52739, selinexor-treated cytoplasm vs control cytoplasm): 0.01
- Differential protein expression, RBM5 (P52756, selinexor-treated cytoplasm vs control cytoplasm): 0.01
- Differential protein expression, PLK1 (P53350, selinexor-treated cytoplasm vs control cytoplasm): 0.01
- Differential protein expression, CEBPG (P53567, selinexor-treated cytoplasm vs control cytoplasm): 0.01
- Differential protein expression, MAPK12 (P53778, selinexor-treated cytoplasm vs control cytoplasm): 2.006
- Differential protein expression, POLG (P54098, selinexor-treated cytoplasm vs control cytoplasm): 0.27
- Differential protein expression, EPHB3 (P54753, selinexor-treated cytoplasm vs control cytoplasm): 0.496
- Differential protein expression, PKNOX1 (P55347, selinexor-treated cytoplasm vs control cytoplasm): 0.01
- Differential protein expression, MAZ (P56270, selinexor-treated cytoplasm vs control cytoplasm): 0.01
- Differential protein expression, HDAC4 (P56524, selinexor-treated cytoplasm vs control cytoplasm): 0.458
- Differential protein expression, PCBP3 (P57721, selinexor-treated cytoplasm vs control cytoplasm): 2.306
- Differential protein expression, CKS1B (P61024, selinexor-treated cytoplasm vs control cytoplasm): 0.422
- Differential protein expression, POLR2F (P61218, selinexor-treated cytoplasm vs control cytoplasm): 2.135
- Differential protein expression, SNRPE (P62304, selinexor-treated cytoplasm vs control cytoplasm): 2.173
- Differential protein expression, SNRPF (P62306, selinexor-treated cytoplasm vs control cytoplasm): 2.172
- Differential protein expression, SNRPD1 (P62314, selinexor-treated cytoplasm vs control cytoplasm): 2.056
- Differential protein expression, SNRPD2 (P62316, selinexor-treated cytoplasm vs control cytoplasm): 2.406
- Differential protein expression, RHOB (P62745, selinexor-treated cytoplasm vs control cytoplasm): 0.01
- Differential protein expression, ARF1 (P84077, selinexor-treated cytoplasm vs control cytoplasm): 2.133
- Differential protein expression, H3-3A; H3-3B (P84243, selinexor-treated cytoplasm vs control cytoplasm): 3.295
- Differential protein expression, HSPG2 (P98160, selinexor-treated cytoplasm vs control cytoplasm): 0.441
- Differential protein expression, KRT24 (Q2M2I5, selinexor-treated cytoplasm vs control cytoplasm): 2.716
- Differential protein expression, SMU1 (Q2TAY7, selinexor-treated cytoplasm vs control cytoplasm): 2.21
- Differential protein expression, KRT71 (Q3SY84, selinexor-treated cytoplasm vs control cytoplasm): 4.935
- Differential protein expression, COA6 (Q5JTJ3, selinexor-treated cytoplasm vs control cytoplasm): 2.872
